Data as given in EP0049913A2, “New ethenylimidazole derivatives, processes for their preparation and pharmaceutical compositions containing them; intermediates, useful in their preparation and a process for the preparation thereof” (GIST-BROCADES N.V., priority 1980, dated 1982).
In brackets after ≈: the same amount, converted by molar mass. Structures can show the parent of a compound that is named as a salt. Where two headings read alike, the source gives them in different places.

Assays:
Candida albicans = assay: agar dilution test, Candida albicans; type: cell-based; conditions: for Potency Ratio (P.R.) MIC 50 / Potency Ratio (P.R.) MIC 90: ratio to activity of miconazol (= 1)
Description: (§1) The compounds of the invention were tested in vitro and in vivo. The in vitro activities were determined by means of the usual agar dilution test. The results after two and five days were expressed as MIC 50 and MIC 90, i.e. the minimum concentrations giving complete inhibition of 50% or 90% of the strains tested in […] and as Potency Ratio (P.R.), i.e. the ratio between the activity of the test compound and the activity of miconazol (= 1).

Trichophyton spp. = assay: agar dilution test, Trichophyton spp.; type: cell-based; conditions: 5 d, ratio to activity of miconazol (= 1)
Description: as §1

[1] = test system: Candida albicans strain A 7; assay: method A: systemic infection with Candida albicans in mice; type: in vivo; conditions: three doses daily for 3 days, control animals = 1
Description: A. Testing of compounds against systemic infection with Candida albicans in mice.
Female Swiss SPF mice, weighing […], ten animals per group, were challenged intravenously with 0.5 ml Candida albicans strain A 7 suspension containing sufficient yeast cells to kill 50% of the untreated animals within 5 days. The treatment consisted of three doses daily administered for 3 days either orally or intraperitoneally. Infected, non treated mice served as controls for mortality. The number of mice surviving the challenge was recorded daily and the ratio between the "median survival duration (days)" of the treated and untreated mice was determined, the survival duration of the control animals being graded as 1 (IMSD = Index Median Survival Duration).

[2] = test system: Candida albicans strain A 7; assay: method B: vaginitis candidamycetica in mice (vaginal reduction); type: in vivo; conditions: clotrimazol = 100%
Description: Female Swiss SPF mice, weighing 19-21 g, fifteen animals per group, following an intramuscular premedication by Dimenformon prolongatum, were inoculated intravaginally with +5.105 CFU of Candida albicans strain A 7, harvested from a culture on Mycological Agar and suspended in physiological saline.
The treatment commenced 72 hours after infection when the candidiasis had reached its peak. A four day local treatment period was employed, consisting of two applications daily of 0.02 ml of antimycotics in Plastibase intravaginally. Alternatively, the test compound was administered orally in three doses daily for three days.
On the seventh day after infection the mice were killed, the vagina was excised and homogenized in saline and cultivated on Mycological Agar. The yeast cells were then counted and expressed as CFU/vagina. Results were analysed statistically using the T-test. The results were compared with those obtained with clotrimazol, the action of which was considered as 100%.

[3] = test system: Trichophyton mentagrophytes strain R 177; assay: method C: experimental dermatophytic infection in guinea pigs; type: in vivo; conditions: local treatment, 2% in Plastibase, twice daily for 10 days; scored on 14th day; grades 1-4; untreated animals 4
Description: C. Testing of compounds against experimental dermatophytic infection. (Trichophyton mentagrophytes)
Out-bred blanco TNO female guinea pigs, five animals per group, weighing + 350 g, were prepared by depilation high in the middle of the back over an area 2.5 cm in diameter.
Inoculum was prepared from a culture of Trichophyton mentagrophytes strain R 177 on Mycological Agar. The harvested mycelial mat was diluted in a 20% dextrose solution in water and the suspension was smeared over the depilated area.
Local treatment with 2% concentration of the antimycotic in Plastibase started 72 hours after infection and concurrently the application of vehiculum (Plastibase) to the infected animals was initiated. The application was continued for 10 days and consisted of two applications daily of a measured quantity of ointment to the infected area.
Scoring of lesions and the final check was made on the 14th day after the infection was initiated. The lesions were graded as to the following parameters: • 1 = slight whitish scaling, with erythema • 2 = slight whitish or light yellow scaling with solitary haemorrhagias • 3 = thick whitish-yellow crust or scab • 4 = haemorrhagic ulcer or giant haemorrhagic thick scutula (crust).
The final results were recorded as the average of lesion intensities (A.L.I.) for each experimental group (treated with either test compound or reference compound and untreated control).

[4] = 48 h, after 2 d, complete inhibition of 50% of the strains tested, read-out: MIC 50
[5] = 48 h, after 2 d, complete inhibition of 90% of the strains tested, read-out: MIC 90
[6] = 120 h, after 5 d, complete inhibition of 50% of the strains tested, read-out: MIC 50
[7] = 120 h, after 5 d, complete inhibition of 90% of the strains tested, read-out: MIC 90
[8] = local intravaginal treatment in Plastibase, two applications daily for four days
[9] = p.o., three doses daily for three days

Structure (SMILES) | MIC50 (Candida albicans; [4]) [ng/mL] | MIC90 (Candida albicans; [5]) [ng/mL] | MIC50 (Candida albicans; [6]) [ng/mL] | MIC90 (Candida albicans; [7]) [ng/mL] | Potency Ratio (P.R.) MIC 50 (Candida albicans; 2 d) | Potency Ratio (P.R.) MIC 90 (Candida albicans; 2 d) | Potency Ratio (P.R.) MIC 50 (Candida albicans; 5 d) | Potency Ratio (P.R.) MIC 90 (Candida albicans; 5 d) | Potency Ratio (P.R.) MIC 50 (Trichophyton spp.) | Potency Ratio (P.R.) MIC 90 (Trichophyton spp.) | IMSD (Index Median Survival Duration) ([1]; i.p.) | IMSD (Index Median Survival Duration) ([1]; p.o.) | vag.red. % [2, 8] [%] | A.L.I. (average of lesion intensities) [3] | MIC50 (Candida albicans; 48 h) [ng/mL] | MIC90 (Candida albicans; 48 h) [ng/mL] | MIC50 (Candida albicans; 120 h) [ng/mL] | MIC90 (Candida albicans; 120 h) [ng/mL] | vag.red. % [2, 9]
CCCC(=Cn1ccnc1)c1ccc(Cl)cc1Cl.Cl [I, 1-[2-(2,4-dichlorophenyl)-1-pentenyl]-1H-imidazol hydrochloride] | 3 | 8 | 4 | 9 | 1.0 | 1.2 | 1.0 | 0.7 | 35.3 | 13.9 | 1.4 | 3.0 | 35 | 0 | – | – | – | – | –
CC(C)(C)C(=Cn1ccnc1)c1ccc(Cl)cc1Cl.O=[N+]([O-])O [IV, 1-[2-(2,4-dichlorophenyl)-3,3-dimethyl-1-butenyl]-1H-imidazole nitrate] | – | – | – | – | 0.7 | 0.9 | 0.5 | 0.5 | 15.1 | 4.1. | 5.1 | 3.1 | 59 | 0 | 3 | 5 | 5 | 11 | 24%
Clc1ccc(C(=Cn2ccnc2)C2CCCCC2)cc1 [V, 1-[2-(4-chlorophenyl)-2-cyclohexylethenyl] -lH-imidazole hydrochloride] | 3 | 8 | 5 | 10 | 1.3 | 1.0 | 1.1 | 1.1 | 0.8 | 0.6 | 3.5 | 4.1 | – | – | – | – | – | – | 150 (p.o.) %
Clc1ccc(C(=Cn2ccnc2)C2CCCCC2)c(Cl)c1 [VI, 1-[2-cyclohexyl-2-(2,4-dichlorophenyl)ethenyl]-IH-imidazole hydrochloride] | 4 | 8 | 5 | 11 | 0.9 | 0.7 | 0.8 | 0.6 | 1.9 | 1.0 | 3.7 | 3.9 | 97 | 0.4 | – | – | – | – | 52%

The next lines start with results.

MIC50 (Candida albicans; [4]) [ng/mL] | MIC90 (Candida albicans; [5]) [ng/mL] | MIC50 (Candida albicans; [6]) [ng/mL] | MIC90 (Candida albicans; [7]) [ng/mL] | Structure (SMILES) | Potency Ratio (P.R.) MIC 50 (Candida albicans; 2 d) | Potency Ratio (P.R.) MIC 90 (Candida albicans; 2 d) | Potency Ratio (P.R.) MIC 50 (Candida albicans; 5 d) | Potency Ratio (P.R.) MIC 90 (Candida albicans; 5 d) | Potency Ratio (P.R.) MIC 50 (Trichophyton spp.) | Potency Ratio (P.R.) MIC 90 (Trichophyton spp.) | IMSD (Index Median Survival Duration) ([1]; i.p.) | IMSD (Index Median Survival Duration) ([1]; p.o.) | vag.red. % [2, 8] [%] | A.L.I. (average of lesion intensities) [3] | MIC50 (Candida albicans; 48 h) [ng/mL] | MIC90 (Candida albicans; 48 h) [ng/mL] | MIC50 (Candida albicans; 120 h) [ng/mL] | MIC90 (Candida albicans; 120 h) [ng/mL] | vag.red. % [2, 9]
2 (≈ 0.00767 µM) | 5 (≈ 0.0192 µM) | 4 (≈ 0.0153 µM) | 6 (≈ 0.023 µM) | CCC(C)C(=Cn1ccnc1)c1ccc(Cl)cc1 (stereo not shown) [II, 1-[2-(4-chlorophenyl)-3-methyl-1-pentenyl] -lH-imidazole] | 1.7 | 1.7 | 1.2 | 1.9 | 2.8 | 2.1 | 3.8 | 4.6 | 98 | 0 | – | – | – | – | –
5 | 10 | 6 | 11 | CCC(C)C(=Cn1ccnc1)c1ccc(Cl)cc1Cl.Cl (stereo not shown) [III, 1-[2-(2,4-Dichlorophenyl)-3-methyl-1-pentenyl]-1H-imidazole hydrochloride] | 0.7 | 0.9 | 0.7 | 1.2 | 1.7 | 0.8 | 3.5 | 4.1 | 136 | 0 | – | – | – | – | –
